Results reported in US20250230193A1, “CYCLIC COMPOUND HAVING SELECTIVE KRAS INHIBITORY EFFECT ON HRAS AND NRAS” (CHUGAI SEIYAKU KABUSHIKI KAISHA, priority 2022, published 2025).
Read-outs that look alike come from different tables or passages of the source. Blank lines part the entries; values can stand above or below the compound they belong to. *1 amine or outer side, *2 acyl side, *3 side chain or, on linkers, in order; H or OH if unused. Where a SMILES comes first, the peptide text is derived from it. Bridges are numbered along the chain shown (N, C = ends). [ ]: non-standard residue; d: D form. hPhe(3,5-F2-4-CF3) = N[C@@H](CCc1cc(F)c(C(F)(F)F)c(F)c1)C(=O)O; hPhe(3-Cl-4-CF3) = N[C@@H](CCc1ccc(C(F)(F)F)c(Cl)c1)C(=O)O; X8 = CCCN([C@@H](Cc1ccc(OCC=[*:3])cc1)C(=O)[*:2])[*:1]; X4 = CCCN([C@@H](COCCC(C)C)C(=O)[*:2])[*:1]; X7 = CN([C@@H](CCC=[*:3])C(=O)[*:2])[*:1]; NMeGly(cPent) = CN[C@H](C(=O)O)C1CCCC1; Hyp = O=C(O)[C@@H]1C[C@@H](O)CN1; NMeD = CN[C@@H](CC(=O)O)C(=O)O; NMeL = CN[C@@H](CC(C)C)C(=O)O; NMeA = CN[C@@H](C)C(=O)O; Ac5c = NC1(C(=O)O)CCCC1; Aze = O=C(O)[C@@H]1CCN1; Ac4c = NC1(C(=O)O)CCC1; Sar = CNCC(=O)O

Tests used:
[1] = target: GDP-bound KRAS wild-type protein (Homo sapiens, UniProt P01116); assay: Binding to KRAS by surface plasmon resonance (SPR), Single Cycle Kinetics
[2] = target: GDP-bound NRAS wild-type protein (Homo sapiens, UniProt P01111); assay: Binding to NRAS by surface plasmon resonance (SPR), Single Cycle Kinetics
[3] = target: GDP-bound HRAS wild-type protein (Homo sapiens, UniProt P01112); assay: Binding to HRAS by surface plasmon resonance (SPR), Single Cycle Kinetics
[4] = tested on: human lung cancer strain NCI-H441
[5] = SPR Single Cycle Kinetics, GDP-bound KRAS wild-type protein, 1:1 binding model
[6] = KD ratio, GDP-bound NRAS wild-type vs GDP-bound KRAS wild-type, SPR
[7] = SPR, Single Cycle Kinetics; GDP-bound KRAS wild-type protein
[8] = KD ratio, GDP-bound HRAS wild-type vs GDP-bound KRAS wild-type, SPR
[9] = read-out: NCI-H441 IC50, NCI-H441 cells, 4 days, CellTiter-Glo
[10] = SPR, GDP-bound wild-type proteins

GDP-bound NRAS wild-type protein, sequence (P01111 whole entry): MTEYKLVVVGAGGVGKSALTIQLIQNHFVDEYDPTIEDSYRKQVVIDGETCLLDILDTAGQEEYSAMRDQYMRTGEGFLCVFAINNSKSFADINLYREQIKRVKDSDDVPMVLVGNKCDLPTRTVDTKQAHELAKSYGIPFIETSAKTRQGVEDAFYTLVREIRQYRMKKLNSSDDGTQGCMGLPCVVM
GDP-bound HRAS wild-type protein, sequence (P01112 whole entry): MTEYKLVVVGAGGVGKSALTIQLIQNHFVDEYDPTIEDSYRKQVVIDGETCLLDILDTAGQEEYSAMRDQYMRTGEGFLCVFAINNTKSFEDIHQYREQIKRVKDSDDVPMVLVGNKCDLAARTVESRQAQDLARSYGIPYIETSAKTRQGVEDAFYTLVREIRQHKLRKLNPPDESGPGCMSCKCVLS

SMILES: CCCN1C(=O)CN(C)C(=O)CN(C)C(=O)[C@H]([C@@H](C)CC)NC(=O)[C@@H]2CCCCOc3ccc(cc3)C[C@H]1C(=O)N(C)CC(=O)N[C@@H](CCc1cc(F)c(C(F)(F)F)c(F)c1)C(=O)N1C[C@H](OCC)C[C@H]1C(=O)NC1(CCCC1)C(=O)N(C)[C@@H](C1CCCC1)C(=O)N(C)[C@H](C(=O)N(C)C)CC(=O)N2C [PP0894]
NRAS/KRAS (ratio of KD value with respect to NRAS to KD value with respect to KRAS) [2, 6]: C (A compound having a KD ratio of 0.1 or more and less than 3 is denoted as C) | Kd [1, 7]: 0.0088 nM | HRAS/KRAS (ratio of KD value with respect to HRAS to KD value with respect to KRAS) [3, 8]: C (A compound having a KD ratio of 0.1 or more and less than 3 is denoted as C)

SMILES: CCCN1C(=O)CN(C)C(=O)CN(C)C(=O)[C@H]([C@@H](C)CC)NC(=O)[C@@H]2CCC=CCOc3ccc(cc3)C[C@H]1C(=O)N(C)CC(=O)N[C@@H](CCc1cc(F)c(C(F)(F)F)c(F)c1)C(=O)N1C[C@H](OCC)C[C@H]1C(=O)NC1(CCCC1)C(=O)N(C)[C@@H](C1CCCC1)C(=O)N(C)[C@H](C(=O)N(C)C)CC(=O)N2C [PP0900] ([X7]I[Sar][Sar][X8][Sar][hPhe(3,5-F2-4-CF3)][Hyp](Et)[Ac5c][NMeGly(cPent)][NMeD]-NMe2; staple 1-5; lactam N-11)
NRAS/KRAS (ratio of KD value with respect to NRAS to KD value with respect to KRAS) [2, 6]: C (A compound having a KD ratio of 0.1 or more and less than 3 is denoted as C) | Kd [1, 7]: 0.012 nM | HRAS/KRAS (ratio of KD value with respect to HRAS to KD value with respect to KRAS) [3, 8]: C (A compound having a KD ratio of 0.1 or more and less than 3 is denoted as C)

SMILES: CCCN1C(=O)CN(C)C(=O)CN(C)C(=O)[C@H]([C@@H](C)CC)NC(=O)[C@@H]2CCCCCCC[C@@H](NC(=O)[C@@H]3C[C@@H](OCC)CN3C(=O)[C@H](CCc3cc(F)c(C(F)(F)F)c(F)c3)NC(=O)CN(C)C(=O)[C@@H]1Cc1ccc(C(F)(F)F)cc1)C(=O)N(C)[C@@H](C1CCCC1)C(=O)N(C)[C@H](C(=O)N(C)C)CC(=O)N2C [PP0925]
NRAS/KRAS (ratio of KD value with respect to NRAS to KD value with respect to KRAS) [2, 6]: A (a compound having 10 or more and less than 20 is denoted as A) | Kd [1, 7]: 1.1 nM | HRAS/KRAS (ratio of KD value with respect to HRAS to KD value with respect to KRAS) [3, 8]: B (a compound having 3 or more and less than 10 is denoted as B)

SMILES: CCC[C@H]1C(=O)N[C@@H]([C@@H](C)CC)C(=O)N(C)CC(=O)N(C)[C@H]2C/C=C\CCN(C2=O)[C@@H](Cc2ccc(C(F)(F)F)cc2)C(=O)N(C)CC(=O)N[C@@H](CCc2cc(Cl)c3c(ccn3C)c2)C(=O)N2C[C@H](OCC)C[C@H]2C(=O)NC2(CC(C)(C)C2)C(=O)N(C)[C@@H](C(CC)CC)C(=O)N(C)[C@H](C(=O)N(C)C)CC(=O)N1C [PP2896]
NRAS/KRAS (ratio of KD value with respect to GDP-bound NRAS wild-type protein to KD value with respect to KRAS) ([2]; class symbols): A (a compound having 10 or more and less than 20 is denoted as A) | IC50 [4, 9]: 79.3 nM | HRAS/KRAS (ratio of KD value with respect to GDP-bound HRAS wild-type protein to KD value with respect to KRAS) ([3]; class symbols): A (a compound having 10 or more and less than 20 is denoted as A)

SMILES: CCC(CC)[C@H]1C(=O)N(C)[C@H](C(=O)N2CCCCC2)CC(=O)N(C)[C@H]2CCC/C=C/c3ccc(cc3)C[C@@H](C(=O)N(C)CC(=O)N[C@@H](CCc3ccc(Cl)c(Cl)c3)C(=O)N3CCC[C@H]3C(=O)NC3(CC(C)(C)C3)C(=O)N1C)N1CC/C=C\C[C@@H](C1=O)N(C)C(=O)CN(C)C(=O)[C@H]([C@@H](C)CC)NC2=O [PP3055]
NRAS/KRAS (ratio of KD value with respect to GDP-bound NRAS wild-type protein to KD value with respect to KRAS) [2, 10]: AA (a compound having 20 or more is denoted as AA) | IC50 [4, 9]: 69.2 nM | HRAS/KRAS (ratio of KD value with respect to GDP-bound HRAS wild-type protein to KD value with respect to KRAS) [3, 10]: A (a compound having 10 or more and less than 20 is denoted as A)

SMILES: CCO[C@@H]1C[C@H]2C(=O)NC3(CC(C)(C)C3)C(=O)N(C)[C@@H](C3CCCC3)C(=O)N(C)[C@H](C(=O)N3CCCCC3)CC(=O)N(C)[C@H]3CCCCc4ccc(cc4)C[C@@H](C(=O)N(C)CC(=O)N[C@@H](CCc4ccc(C(F)(F)F)c(OC)c4)C(=O)N2C1)N1CC/C=C\C[C@@H](C1=O)N(C)C(=O)CN(C)C(=O)[C@H]([C@@H](C)CC)NC3=O [PP3093, (1S,7S,11R,13S,19S,22S,26S,29S,35S,37Z)-19-cyclopentyl-11-ethoxy-7-[2-[3-methoxy-4-(trifluoromethyl)phenyl]ethyl]-3,3′,3′,18,21,25,31,34-octamethyl-29-[(1S)-1-methylpropyl]-22-(piperidine-1-carbonyl)spiro[3,6,9,15,18,21,25,28,31,34,41-undecazapentacyclo[24.15.9.2^43,46.1^35,41.0^9,13]tripentaconta-37,43(52),44,46(51)-tetraene-16,1′-cyclobutane]-2,5,8,14,17,20,24,27,30,33,53-undecone]
NRAS/KRAS (ratio of KD value with respect to GDP-bound NRAS wild-type protein to KD value with respect to KRAS) [2, 10]: A (a compound having 10 or more and less than 20 is denoted as A) | IC50 [4, 9]: 3.2 nM | HRAS/KRAS (ratio of KD value with respect to GDP-bound HRAS wild-type protein to KD value with respect to KRAS) [3, 10]: A (a compound having 10 or more and less than 20 is denoted as A)

SMILES: CCC[C@H]1C(=O)N[C@@H]([C@@H](C)CC)C(=O)N(C2CC2)CC(=O)N(C)[C@H]2C/C=C\CCN(C2=O)[C@@H](Cc2ccc(C)cc2)C(=O)N(C)CC(=O)N[C@@H](CCc2ccc(C(F)(F)F)c(OC)c2)C(=O)N2C[C@H](OCC)C[C@H]2C(=O)N(C)C2(CCC2)C(=O)N(C)[C@@H](C2CCCC2)C(=O)N(C)[C@H](C(=O)N2CCCCC2)CC(=O)N1C [PP3096, (2S,8S,12R,14S,20S,23S,27S,30S,36S,38Z)-20-cyclopentyl-32-cyclopropyl-12-ethoxy-8-[2-[3-methoxy-4-(trifluoromethyl)phenyl]ethyl]-4,16,19,22,26,35-hexamethyl-30-[(1S)-1-methylpropyl]-23-(piperidine-1-carbonyl)-27-propyl-2-(p-tolylmethyl)spiro[1,4,7,10,16,19,22,26,29,32,35-undecazatricyclo[34.5.1.0^10,14]dotetracont-38-ene-17,1′-cyclobutane]-3,6,9,15,18,21,25,28,31,34,42-undecone]
NRAS/KRAS (ratio of KD value with respect to GDP-bound NRAS wild-type protein to KD value with respect to KRAS) [2, 10]: A (a compound having 10 or more and less than 20 is denoted as A) | IC50 [4]: 35.8 nM | HRAS/KRAS (ratio of KD value with respect to GDP-bound HRAS wild-type protein to KD value with respect to KRAS) [3, 10]: A (a compound having 10 or more and less than 20 is denoted as A)

Second part, led by results:

Kd [1, 5]: 3000 nM
SMILES: CC[C@H](C)[C@@H]1NC(=O)[C@H](CC(C)C)N(C)C(=O)CSC[C@@H](C(=O)N(C)C)N(C)C(=O)[C@H](C2CCCC2)N(C)C(=O)C2(CCCC2)NC(=O)[C@@H]2CCCN2C(=O)[C@H](CCc2cc(F)c(C(F)(F)F)c(F)c2)NC(=O)CN(C)C(=O)[C@H](Cc2ccc(C(F)(F)F)cc2)N2CC/C=C\C[C@@H](C2=O)N(C)C(=O)CN(C)C1=O (stereo in doubt) [PP3109]

Kd [1, 7]: 0.19 nM
SMILES: CCO[C@@H]1C[C@H]2C(=O)NC3(CCC3)C(=O)N(C)[C@@H](C3CCCC3)C(=O)N(C)[C@H](C(=O)N3CCOCC3)CC(=O)N(C)[C@@H](Cc3ccccc3)C(=O)N[C@@H]([C@@H](C)CC)C(=O)N(C)CC(=O)N(C)[C@H]3CCCCCN(C3=O)[C@@H](Cc3ccc(F)cc3)C(=O)N(C)CC(=O)N[C@@H](CCc3cc(F)c(C(F)(F)F)c(F)c3)C(=O)N2C1 [PP1181]
NRAS/KRAS (ratio of KD value with respect to NRAS to KD value with respect to KRAS) [2, 6]: B (a compound having 3 or more and less than 10 is denoted as B) | HRAS/KRAS (ratio of KD value with respect to HRAS to KD value with respect to KRAS) [3, 8]: B (a compound having 3 or more and less than 10 is denoted as B)

Kd [1, 5]: 0.6 nM
SMILES: CCCN1C(=O)[C@@H]2CCN2C(=O)[C@H](C)N(C)C(=O)[C@H]([C@@H](C)CC)NC(=O)[C@H](CC(C)C)N(C)C(=O)C[C@@H](C(=O)N(C)C)N(C)C(=O)[C@H](C2CCCC2)N(C)C(=O)C2(CCC2)NC(=O)[C@@H]2CCCN2C(=O)[C@H](CCc2ccc(C(F)(F)F)c(Cl)c2)NC(=O)CN(C)C(=O)[C@@H]1COCCC(C)C [PP1820, (3S,9S,12S,17S,20S,23S,27S,30S,36S)-3-[2-[3-chloro-4-(trifluoromethyl)phenyl]ethyl]30-cyclopentyl-23-isobutyl-9-(isopentyloxymethyl)-N,N,7,17,18,24,28,31-octamethyl-20-[(1S)-1-methylpropyl]-2,5,8,11,16,19,22,25,29,32,35-undecaoxo-10-propyl-spiro[1,4,7,10,15,18,21,24,28,31,34-undecazatricyclo[34.3.0.012,15]nonatriacontane-33,1′-cyclobutane]-27-carboxamide] ([NMeL]I[NMeA][Aze][X4][Sar][hPhe(3-Cl-4-CF3)]P[Ac4c][NMeGly(cPent)][NMeD]-NMe2; lactam N-11)
NRAS/KRAS (ratio of KD value for NRAS to KD value for KRAS) [2, 6]: C (A compound having a KD ratio of 0.1 or more and less than 3 is denoted as C) | HRAS/KRAS (ratio of KD value for HRAS to KD value for KRAS) [3, 8]: C (A compound having a KD ratio of 0.1 or more and less than 3 is denoted as C)

Kd ([1]; GDP-bound KRAS wild-type protein, SPR Single Cycle Kinetics, 1:1 binding model): 0.065 nM
SMILES: CCC[C@H]1C(=O)N[C@@H]([C@@H](C)CC)C(=O)N(C)CC(=O)N(C)[C@H]2C/C=C\CCN(C2=O)[C@@H](Cc2ccc(C(F)(F)F)cc2)C(=O)N(C)CC(=O)N[C@@H](CCc2cc(F)c(C(F)(F)F)c(F)c2)C(=O)N2C[C@H](OCC)C[C@H]2C(=O)NC2(CC(C)(C)C2)C(=O)N(C)[C@@H](CC(C)(C)C)C(=O)N(C)C(C(=O)N(C)C)CC(=O)N1C (stereo partly shown) [PP2730]
NRAS/KRAS (ratio of KD value with respect to GDP-bound NRAS wild-type protein to KD value with respect to KRAS) ([2]; class symbols): A (a compound having 10 or more and less than 20 is denoted as A) | HRAS/KRAS (ratio of KD value with respect to GDP-bound HRAS wild-type protein to KD value with respect to KRAS) ([3]; class symbols): A (a compound having 10 or more and less than 20 is denoted as A)
